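Where inhibition never reached the appropriate level, the endpoint shown equals the highest concentration tested. Otherwise, values were interpolated linearly from a five-concentration, 48-hour dose response in 96-well plates. Here, GI50 denotes the concentration required for 50% inhibition of growth. At the TGI there is no net growth.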
Experiments:
Experiment in all cases: inhibition of tumour cell growth, NCI panel, 48 h
[1] = system: 786-0 renal
[2] = system: U251 CNS
[3] = system: NCI-H522 lung
[4] = system: SW-620 colon
[5] = system: NCI-H226 lung
[6] = system: COLO 205 colon
[7] = system: UACC-62 melanoma
[8] = system: TK-10 renal
[9] = system: SN12C renal
[10] = system: IGROV1 ovarian

Row | SMILES | TGI [1] | TGI [2] | TGI [3] | TGI [4] | TGI [5] | TGI [6] | TGI [7] | TGI [8] | TGI [9] | TGI [10] | GI50 [10] | GI50 [3] | GI50 [4] | GI50 [6] | GI50 [7] | GI50 [8] | GI50 [9] | GI50 [2]
1 | COc1cc(/C=C2/SC(c3ccccc3)N(c3ccc(NC(C)=O)cc3)C2=O)cc(OC)c1OC (centres undefined) | > 100 µM | > 100 µM | > 100 µM | > 100 µM | > 100 µM | > 100 µM | > 100 µM | > 100 µM | > 100 µM |  |  |  |  |  |  |  |  | 
2 | COCOc1ccc(C(=O)C(C)c2ccc(OCOC)cc2OCOC)c(O)c1 (centres undefined) | > 100 µM | > 100 µM | > 100 µM | > 100 µM |  | > 100 µM | > 100 µM | > 100 µM | > 100 µM | > 100 µM |  |  |  |  |  |  |  | 
3 | COC(=O)c1c2c(cc3c1CC1(Cc4ccccc4C1=O)C3)CCC2 (centres undefined) | > 100 µM | > 100 µM | > 100 µM | > 100 µM | 44.2 µM | 23.4 µM |  | > 100 µM | > 100 µM | > 100 µM |  |  |  |  |  |  |  | 
4 | O=C(CP(c1ccccc1)c1ccccc1)c1cccc(C(=O)CP(c2ccccc2)c2ccccc2)c1 | > 100 µM | > 100 µM |  | > 100 µM | > 100 µM | > 100 µM | > 100 µM | > 100 µM | > 100 µM | > 100 µM |  |  |  |  |  |  |  | 
5 | C1OCC2S[C@@H]3COCO[C@@H]3C2O1 (some centres undefined) | > 100 µM | > 100 µM | > 100 µM |  | > 100 µM | > 100 µM | > 100 µM | > 100 µM | > 100 µM |  |  |  |  |  |  |  |  | 
6 | CCOC(=O)c1cnc(-n2[nH]c(C)c(CCO)c2=O)[nH]c1=O | > 100 µM | > 100 µM |  | > 100 µM | > 100 µM | > 100 µM | > 100 µM | > 100 µM | > 100 µM | > 100 µM |  |  |  |  |  |  |  | 
7 | CCC(C)[C@H](NC(=O)[C@H](Cc1ccccc1)NC(=O)N(CC)c1ccccc1)C(=O)N[C@@H](CC(C)C)C(=O)OC (some centres undefined) | > 100 µM | > 100 µM |  | > 100 µM | 46.2 µM | > 100 µM | > 100 µM | > 100 µM | > 100 µM | 61.5 µM |  |  |  |  |  |  |  | 
8 | CN(C)CC(/C(Cc1ccccc1)=N\NC(=O)C[n+]1ccccc1)c1ccccc1 (centres undefined) | > 100 µM | > 100 µM | > 100 µM |  | > 100 µM | > 100 µM | > 100 µM | > 100 µM | > 100 µM | > 100 µM |  |  |  |  |  |  |  | 
9 | COC(=O)c1cn(CCCC(=O)O)nn1 | > 100 µM | > 100 µM |  | > 100 µM | > 100 µM | > 100 µM | > 100 µM | > 100 µM | > 100 µM | > 100 µM |  |  |  |  |  |  |  | 
10 | COc1cc2c(cc1OCCCN1CCN(CCCOc3cc4c(cc3OC)C(=O)N3CCC[C@H]3C=N4)CC1)C=CC(C)(C)O2 |  |  | 4.27 µM | 1.93 µM |  | 2.61 µM | 2.73 µM | 2.87 µM | 1.95 µM | > 100 µM | 0.606 µM | 1.48 µM | 0.634 µM | 1.21 µM | 1.42 µM | 1.46 µM | 0.584 µM | 
11 | Cc1c2cc[nH]c(C(F)(F)F)c2cc2c1nc1ccccc12 |  | > 125 µM | > 125 µM | > 125 µM | > 125 µM | > 125 µM | > 125 µM |  | > 125 µM | > 125 µM |  |  |  |  |  |  |  | 
12 | Nc1nc2c(=O)c3ccccc3sc2s1 | > 100 µM | > 100 µM |  | > 100 µM | 79.1 µM | > 100 µM | 84 µM | > 100 µM | > 100 µM | > 100 µM |  |  |  |  |  |  |  | 
13 | CCc1nn(CN2CCN(C)CC2)c(=S)n1/N=C\c1ccc(-c2ccc([N+](=O)[O-])cc2)o1 | > 100 µM | > 100 µM | > 100 µM |  | 86.4 µM |  | > 100 µM | 71.3 µM | > 100 µM | > 100 µM |  |  |  |  |  |  |  | 
14 | FC(F)(F)c1ccc(-c2nc(-c3nc4cc(Cl)c(Cl)cc4[nH]3)c3ccccn23)cc1 |  | > 100 µM | > 100 µM | > 100 µM |  | > 100 µM | > 100 µM | > 100 µM | > 100 µM | > 100 µM | 16.1 µM | 10.6 µM | > 100 µM | > 100 µM | 15.6 µM | 8.15 µM | > 100 µM | 3.13 µM
15 | c1csc(-c2ccc(-c3ccc(-c4ccc(-c5cccs5)s4)s3)s2)c1 | > 100 µM | > 100 µM |  | > 100 µM | > 100 µM | > 100 µM | > 100 µM | > 100 µM | > 100 µM | > 100 µM |  |  |  |  |  |  |  | 
